Read-outs that look alike come from different tables or passages of the source.
What was measured:
[1] = tested on: aus dem Epydimalgewebe der Ratten isolierten und in vitro inkubierten Fettzellen; assay: tissue or blood; conditions: 0.5 h
Description: Die in der untenanliegenden Tabelle hervorgebrachten Resultate wurden auf, aus dem Epydimalgewebe der Ratten isolierten und in vitro inkubierten Fettzellen durchgeführt, wobei die Befreiung von Glyzerol als Parameter der Lypolysis in Anbetracht gezogen wurde.
Die spontane Lypolysis in Abwesenheit von Arzneimitteln wurde als Vergleichstermin in Anbetracht gezogen.
Die Hemmungsprozentualen beziehen sich auf die spontane (erste Spalte), von Epynephrin induzierte (zweite Spalte) und von Theophyllin induzierte (dritte Spalte) Lypolysis.

Lypolysis = conditions: in the presence of zyklischem AMP-dibutyrat; cited from earlier work
Maus (Swissstamm) = conditions: mouse, oral, same experimental conditions; literature value; cited from earlier work
[2] = read-out: Lypolysis +Epynephrin 10^-6M
[3] = read-out: Lypolysis +Theophyllin 3x10^-4M

**Q.** For `OCCSCCCCCCCCCCSCCO` [T, Thiadenol], which inhibition at 1000 µM [1, 2] is on record?
**A.** The inhibition at 1000 µM was 33%.

**Q.** And the inhibition at 100 µM [1, 3]?
**A.** The inhibition at 100 µM was 34%.

**Q.** What about the inhibition at 1000 µM [1, 3] of the same molecule?
**A.** The inhibition at 1000 µM was 47%.

**Q.** What about the “in vitro lypolysishemmende Wirkung” value (Lypolysis) of the same molecule?
**A.** Its value is “lypolysishemmende Wirkung”.

**Q.** What about the LD50-Wert (Maus (Swissstamm)) of the same molecule?
**A.** The LD50-Wert was 10000 mg/kg.

**Q.** With `CNCC(O)c1ccc(O)c(O)c1` (stereo not drawn) [Epynephrin] as the molecule, how does the fold induction at 1 µM ([1]; read-out: von Epynephrin in Vergleich mit der spontanen Lypolysis induzierte Zunahme) read?
**A.** The fold induction at 1 µM was 12.8.

**Q.** Which fold induction at 300 µM ([1]; read-out: von Theophyllin in Vergleich mit der spontanen Lypolysis induzierte Zunahme) does the source give for `Cn1c(=O)c2[nH]cnc2n(C)c1=O` [Theophyllin] here?
**A.** Its fold induction at 300 µM is 7.6.

**Q.** Which inhibition at 100 µM [1, 2] does the source give for `O=C(OCCSCCCCCCCCCCSCCOC(=O)OCc1cccnc1)OCc1cccnc1` [TN, Gemischtes Doppelcarbonat des Bis-hydroxyethylmercapto-1,10-decans und 3-Pyridylmethanols] here?
**A.** Its inhibition at 100 µM is 34%.

**Q.** And the inhibition at 1000 µM [1, 2]?
**A.** The inhibition at 1000 µM was 58%.

**Q.** What about the inhibition at 100 µM [1, 3] of the same molecule?
**A.** Its inhibition at 100 µM is 30%.

**Q.** What about the inhibition at 1000 µM [1, 3] of the same molecule?
**A.** The inhibition at 1000 µM was 69%.

**Q.** What about the inhibition at 100 µM ([1]; read-out: Lypolysis Spontane) of the same molecule?
**A.** Its inhibition at 100 µM is 70%.

**Q.** What about the inhibition at 1000 µM ([1]; read-out: Lypolysis Spontane) of the same molecule?
**A.** The inhibition at 1000 µM was 84%.

**Q.** Which results are given for `OCc1cccnc1` [N, Nicotinol]?
**A.** inhibition at 2000 µM [1, 2]: 38%; inhibition at 200 µM [1, 3]: 37%; inhibition at 2000 µM [1, 3]: 60%; inhibition at 200 µM ([1]; read-out: Lypolysis Spontane): 60%; inhibition at 2000 µM ([1]; read-out: Lypolysis Spontane): 89%
